{"source": "patent US20090081775A1", "about": "“Microscope system and screening method for drugs, physical therapies and biohazards” (Stiftesen Unversitetsforskning Bergen, priority 2005, published 2009)", "test_system": "PC12 cells", "experiment": "Segmentation of WGA stained PC12 cells treated with thymidine (cell size by automated 3D segmentation)", "type": "cell-based, rat", "method": "PC12 and NRK cells were cultured in DMEM supplemented with 10% fetal calf serum and 5% horse serum. For high-resolution fluorescence microscopy and light microscope analysis, PC 12 cells were plated in LabTek™ chambered swell cover glasses (Nalge Nunc Int., Wiesbaden, Germany). Two hours after plating, the cells were stained with two dyes. For the experiments in which the effect of thymidine on cellular size and morphology was investigated, PC12 cells were plated on LabTek™ chambered swell cover glasses. 24 hours after plating, fresh growth medium containing 4 mM thymidine (Sigma) was added to the cells. In the control condition, fresh growth medium without thymidine was used. 24 hours afterwards cells were washed once with prewarmed fresh growth medium and grown further in growth medium without thymidine. […] To specifically display cell borders, cells were stained with wheat germ agglutinin (WGA) conjugated to either AlexaFluor™488 or AlexaFluor™594 (Invitrogen). WGA-AlexaFluor™594 is a lectin which binds glycogenfugates like N-acetylglucosamine and therefore stains biological membranes efficiently. CellTracker™ (CellTracker™, Molecular Probes Inc., Eugene, Oreg., USA) passes freely through cell membranes, but once inside a cell, it is transformed into cell-impermeant reaction products and is retained in living cells through several generations. […]\nHigh resolution, […] fluorescence microscopy was performed with an Olympus IX70 microscope (Olympus Optical Co. Europa GmbH, Hamburg) or a Zeiss Axiovert 200M (Bergman A S, Lilleström, Norway) both equipped with 100× oil-immersion objectives, monochromator-based illumination systems (T.I.L.L. Photonics GmbH, Martinsried, Germany), tripleband filtersets DAPI/FITC/TRITC F61-020 (AHF Analysetechnik AG, Tübingen, Germany) and piezo z-steppers (Physik Instrumente GmbH & Co., Karlsruhe, Germany). […] With both the wide-field and confocal imaging setups, WGA-stained cells were analyzed in 3D by acquiring single focal planes 300 to 400 nm apart from each other in the z-direction spanning the whole cellular volume. […]", "key": {"[1]": {"details": "4 mM thymidine for 24 hours, then 24 hours without, mid plane 2D, mean and SEM, three experiments, listed as tymidine"}}, "note": "“And” between values parts separate entries of the source, which are not always exact repeats. Equal entries are not always repeated."}
{"smiles": "Cc1cn([C@H]2C[C@H](O)[C@@H](CO)O2)c(=O)[nH]c1=O", "note": "[thymidine]", "values": [{"measurement": "Dmaj (+): mean major axis length, treated group", "setting": "[1]", "result": "15.26 + 0.40 μm and 16.79 + 0.32 μm and 15.83 + 0.25 μm"}, {"measurement": "Dmin (+): mean minor axis length, treated group", "setting": "[1]", "result": "9.98 + 0.32 μm and 9.21 + 0.19 μm and 9.01 + 0.18 μm"}, {"measurement": "mean size of a cell treated with thymidine compared to a control group", "setting": "conclusion from three experiments", "result": "increase"}]}
